Numbers after ± are expanded uncertainties.
Conditions: 323.15 K, Liquid, Vibrating tube method

CCCC(=O)OCC(COC(=O)CCC)(COC(=O)CCC)COC(=O)CCC [pentaerythritol tetrabutyrate]
mass density (5297 kPa): 1028.8 ± 1.2 kg/m3 | mass density (5297.2 kPa): 1028.8 ± 1.2 kg/m3 | mass density (5297.3 kPa): 1028.9 ± 1.2 kg/m3 | mass density (5297.5 kPa): 1028.8 ± 1.2 kg/m3 | mass density (5297.8 kPa): 1028.8 ± 1.2 kg/m3 | mass density (5324.7 kPa): 1028.9 ± 1.2 kg/m3 | mass density (5344.4 kPa): 1028.9 ± 1.2 kg/m3 | mass density (5347.8 kPa): 1028.8 ± 1.2 kg/m3 | mass density (5370.7 kPa): 1028.8 ± 1.2 kg/m3 | mass density (5375.9 kPa): 1028.8 ± 1.2 kg/m3 | mass density (5394.4 kPa): 1028.9 ± 1.2 kg/m3 | mass density (5418.8 kPa): 1029 ± 1.2 kg/m3 | mass density (5422.4 kPa): 1028.9 ± 1.2 kg/m3 | mass density (5445.4 kPa): 1028.9 ± 1.2 kg/m3 | mass density (5446.8 kPa): 1028.9 ± 1.2 kg/m3 | mass density (5456 kPa): 1028.9 ± 1.2 kg/m3 | mass density (5465.5 kPa): 1028.9 ± 1.2 kg/m3 | mass density (5470.8 kPa): 1029 ± 1.2 kg/m3 | mass density (5493.7 kPa): 1028.9 ± 1.2 kg/m3 | mass density (5495.4 kPa): 1028.9 ± 1.2 kg/m3 | mass density (5499.9 kPa): 1029 ± 1.2 kg/m3 | mass density (5505.6 kPa): 1028.9 ± 1.2 kg/m3 | mass density (5511.7 kPa): 1028.8 ± 1.2 kg/m3 | mass density (5524.8 kPa): 1029 ± 1.2 kg/m3 | mass density (5529.5 kPa): 1029 ± 1.2 kg/m3 | mass density (5540.8 kPa): 1028.9 ± 1.2 kg/m3 | mass density (5549.5 kPa): 1029 ± 1.2 kg/m3 | mass density (5554.5 kPa): 1029 ± 1.2 kg/m3 | mass density (5560.3 kPa): 1028.9 ± 1.2 kg/m3 | mass density (5567.9 kPa): 1028.9 ± 1.2 kg/m3 | mass density (5573.4 kPa): 1028.9 ± 1.2 kg/m3 | mass density (5575 kPa): 1029 ± 1.2 kg/m3 | mass density (5578 kPa): 1029 ± 1.2 kg/m3 | mass density (5582.5 kPa): 1029 ± 1.2 kg/m3 | mass density (5586.4 kPa): 1028.9 ± 1.2 kg/m3 | mass density (5590.4 kPa): 1029.1 ± 1.2 kg/m3 | mass density (5594.2 kPa): 1029 ± 1.2 kg/m3 | mass density (5605.6 kPa): 1029 ± 1.2 kg/m3 | mass density (5630.8 kPa): 1029 ± 1.2 kg/m3 | mass density (5657.1 kPa): 1029.1 ± 1.2 kg/m3 | mass density (5683.6 kPa): 1029.1 ± 1.2 kg/m3 | mass density (5710.2 kPa): 1029.1 ± 1.2 kg/m3 | mass density (5742 kPa): 1029.1 ± 1.2 kg/m3 | mass density (5769.2 kPa): 1029.2 ± 1.2 kg/m3 | mass density (5797 kPa): 1029.2 ± 1.2 kg/m3 | mass density (5824.3 kPa): 1029.2 ± 1.2 kg/m3 | mass density (5857.7 kPa): 1029.2 ± 1.2 kg/m3 | mass density (5886.4 kPa): 1029.2 ± 1.2 kg/m3 | mass density (5945.6 kPa): 1029.2 ± 1.2 kg/m3 | mass density (5970.4 kPa): 1029.2 ± 1.2 kg/m3 | mass density (6001.7 kPa): 1029.3 ± 1.2 kg/m3 | mass density (6023.4 kPa): 1029.3 ± 1.2 kg/m3 | mass density (6053.9 kPa): 1029.4 ± 1.2 kg/m3 | mass density (6080.4 kPa): 1029.4 ± 1.2 kg/m3 | mass density (6107 kPa): 1029.4 ± 1.2 kg/m3 | mass density (6138.8 kPa): 1029.4 ± 1.2 kg/m3 | mass density (6163.7 kPa): 1029.4 ± 1.2 kg/m3 | mass density (6187.1 kPa): 1029.4 ± 1.2 kg/m3 | mass density (6215.2 kPa): 1029.6 ± 1.2 kg/m3 | mass density (6240.1 kPa): 1029.4 ± 1.2 kg/m3 | mass density (6265 kPa): 1029.5 ± 1.2 kg/m3 | mass density (6287.3 kPa): 1029.5 ± 1.2 kg/m3 | mass density (6301.7 kPa): 1029.5 ± 1.2 kg/m3 | mass density (6311 kPa): 1029.5 ± 1.2 kg/m3 | mass density (6319.5 kPa): 1029.4 ± 1.2 kg/m3 | mass density (6327.5 kPa): 1029.6 ± 1.2 kg/m3 | mass density (6345.8 kPa): 1029.6 ± 1.2 kg/m3 | mass density (6372.1 kPa): 1029.6 ± 1.2 kg/m3 | mass density (6398.4 kPa): 1029.7 ± 1.2 kg/m3 | mass density (6423.8 kPa): 1029.8 ± 1.2 kg/m3 | mass density (6456.6 kPa): 1029.6 ± 1.2 kg/m3 | mass density (6483.4 kPa): 1029.6 ± 1.2 kg/m3 | mass density (6511.5 kPa): 1029.6 ± 1.2 kg/m3

From the NIST ThermoML archive (doi:10.1021/je060271a)
